Measured values taken from patent US7598280B2, “Heterocyclic compounds, compositions comprising them and methods of their use” (Lexicon Pharmaceuticals, Inc., priority 2007, dated 2009).

Key:
circulating lymphocytes = assay: Measuring effects on lymphocytes in mice; format: in vivo
Experimental: Unless otherwise indicated, the term “circulating lymphocyte reduction factor” or “CLRF” means the decrease in the number of circulating lymphocytes in mice caused by oral administration of a single dose of a compound at 100 mg/kg, as determined by the method described in the Examples, below.
Compounds were administered by oral gavage or in drinking water. For oral dosing experiments, compounds were resuspended from crystals at 10 mg/ml in vehicle (e.g., water). Mice (F1 hybrids of 129/B6 strain) were gavaged with a single 100 mg/kg dose of compound (equivalent to 100 mpk of the free base for each compound) or a vehicle-only control, and returned to their cages. Mice were anesthetized using isofluorane eighteen hours after dosing and tissues were collected for analysis as described below. For drinking water studies, compounds were dissolved at 50 mg/L in acidified water (pH=2.8) containing 10 g/L glucose. The mice were allowed free access to compound-containing water (or glucose solution as a control) for 72 hours. At the end of 72 hours, tissues were collected for analysis.
CBC measurements were obtained as follows. Mice were anesthetized with isofluorane and blood was collected from the retroorbital plexus into EDTA blood collection tubes (Capiject-MQK, Terumo Medical Corp., Elkton, Md.). […]

S1P lyase = biological target: T1, S1P lyase (Mus musculus, UniProt Q8R0X7); settings: when administered to mice; cited from earlier work
T1 construct: host or cells: mice (in vivo, endogenous enzyme)
T1 sequence (Q8R0X7 1-568): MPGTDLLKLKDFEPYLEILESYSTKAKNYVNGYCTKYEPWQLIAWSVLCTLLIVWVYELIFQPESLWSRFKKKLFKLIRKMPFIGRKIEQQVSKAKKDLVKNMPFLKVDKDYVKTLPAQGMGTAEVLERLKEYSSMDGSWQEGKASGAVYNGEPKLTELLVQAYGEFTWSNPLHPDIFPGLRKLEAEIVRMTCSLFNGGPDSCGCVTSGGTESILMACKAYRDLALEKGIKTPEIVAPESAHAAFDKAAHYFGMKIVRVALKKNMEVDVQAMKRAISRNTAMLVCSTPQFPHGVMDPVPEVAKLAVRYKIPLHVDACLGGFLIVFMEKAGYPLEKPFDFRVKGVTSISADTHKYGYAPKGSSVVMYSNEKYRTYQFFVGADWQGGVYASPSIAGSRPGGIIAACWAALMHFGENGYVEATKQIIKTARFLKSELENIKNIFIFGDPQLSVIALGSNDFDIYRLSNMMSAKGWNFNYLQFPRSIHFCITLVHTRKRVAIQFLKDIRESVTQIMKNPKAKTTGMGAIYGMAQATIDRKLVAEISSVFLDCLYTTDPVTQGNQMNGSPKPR

[1] = test system: lymphocytes / mature T cells; settings: administration to rats and mice; cited from earlier work
immunological effects = settings: studies in humans; cited from earlier work

Compound	effect on circulating lymphocytes (circulating lymphocytes)	S1P lyase activity (S1P lyase)	accumulation of mature T cells in the thymus [1]	lymphopenia [1]	immunological effects (immunological effects)
CC(=O)c1nc(C)c([C@@H](O)[C@H](O)[C@H](O)CO)s1 [1-(4-methyl-5-((1S,2R,3R)-1,2,3,4-tetrahydroxybutyl)thiazol-2-yl)ethanone]	little or no effect	–	–	–	–
CC(=O)c1nc(C(O)C(O)C(O)CO)c[nH]1 (stereo not drawn) [THI, 2-acetyl-4-tetrahydroxybutylimidazole]	capable of reducing circulating lymphocytes	inhibits S1P lyase activity	causes the accumulation of mature T cells in the thymus	induces lymphopenia	no immunological effects
